Common to all, as to assay type: cell-based
One test relates to Proteus morganii EP-14. Nature of the test: Antibacterial activities (MIC), Proteus morganii EP-14. The conditions noted are these: Morganella morganii, EP14. From the text:
(§1) (1) Antibacterial activities (MIC):

The next test has as its system Kleb. pneumoniae EK-6. Kind of test: Antibacterial activities (MIC), Kleb. pneumoniae EK-6. The conditions noted are these: Klebsiella pneumoniae, EK6.
Text: as §1

The test system of the next test is Pseud. aeruginosa EP-01. Kind of test: Antibacterial activities (MIC), Pseud. aeruginosa EP-01. The conditions noted are these: Pseudomonas aeruginosa, EP01.
Text: as §1

A further test relates to Ser. marcescens ES-75. Nature of the test: Antibacterial activities (MIC), Ser. marcescens ES-75. The conditions noted are these: Serratia marcescens, ES75.
Text: as §1

The next test has as its system Staph. aureus 209-P. Nature of the test: Antibacterial activities (MIC), Staph. aureus 209-P. The note with it: Staphylococcus aureus.
Text: as §1

The next test concerns Escher. coli NIHJ. Kind of test: Antibacterial activities (MIC), Escher. coli NIHJ. The note with it: Escherichia coli.
Text: as §1

Each structure is given as a SMILES string. In brackets after ≈: the same amount, converted by molar mass.

Consider `CCn1cc(C(=O)N[C@@H](C(=O)N[C@@H]2C(=O)N3C(C(=O)O)=C(CSc4nnnn4C)CS[C@H]23)c2ccc(OCC(=O)O)cc2)c(=O)c2cc(O)c(O)cc21` [Example 12, 7β-[D-2-(4-Carboxymethoxyphenyl)-2-(6,7-dihydroxy-1,4-dihydro-1-ethyl-4-oxoquinolin-3-carboxamido)-acetamido]-3-(1-methyl-5-tetrazolyl)thiomethyl-3-cephem-4-carboxylic acid], for which the MIC (as a rule, the lowest concentration found to suppress growth) is 1.56 µg/mL (≈ 2.03 µM) against Proteus morganii EP-14; ≤ 0.05 µg/mL against Kleb. pneumoniae EK-6; 0.1 µg/mL (≈ 0.13 µM) in the test with Pseud. aeruginosa EP-01; ≤ 0.05 µg/mL with Ser. marcescens ES-75; 50 µg/mL (≈ 65.2 µM) in the test on Staph. aureus 209-P; 0.4 µg/mL (≈ 0.522 µM) against Escher. coli NIHJ.

As to `CC(=O)Oc1ccc2c(=O)c(C(=O)N[C@@H](C(=O)N[C@@H]3C(=O)N4C(C(=O)O)=C(CSc5nnnn5CC(=O)O)CS[C@H]34)c3ccc(OCC(=O)O)cc3)c(C)oc2c1OC(C)=O` [Example 23, 7β-[D-2-(4-Carboxymethoxyphenyl)-2-(7,8-diacetoxy-2-methyl-4-oxo-4H-1-benzopyran-3-carboxamido)-acetamido]-3-(1-carboxymethyl-5-tetrazolyl)thiomethyl-3-cephem-4-carboxylic acid], the MIC against Proteus morganii EP-14 is 6.25 µg/mL (≈ 7.09 µM); in the test with Kleb. pneumoniae EK-6, ≤ 0.05 µg/mL; against Pseud. aeruginosa EP-01, 0.8 µg/mL (≈ 0.907 µM); with Ser. marcescens ES-75, 0.8 µg/mL (≈ 0.907 µM); in the test with Staph. aureus 209-P, 100 µg/mL (≈ 113 µM); against Escher. coli NIHJ, 0.4 µg/mL (≈ 0.454 µM).

Take `CC(=O)OCC1=C(C(=O)O)N2C(=O)[C@@H](NC(=O)[C@H](NC(=O)c3coc4cc(O)c(O)cc4c3=O)c3ccc(OCC(=O)O)cc3)[C@H]2SC1` [Example 1, 7β-[D-2-(4-Carboxymethoxyphenyl)-2-(6,7-dihydroxy-4-oxo-4H-1-benzopyran-3-carboxamido)-acetamido]-3-acetoxymethyl-3-cephem-4-carboxylic acid]: the MIC with Proteus morganii EP-14 was 6.25 µg/mL (≈ 9.14 µM); in the test on Kleb. pneumoniae EK-6 it was ≤ 0.05 µg/mL; against Pseud. aeruginosa EP-01, ≤ 0.05 µg/mL; in the test on Ser. marcescens ES-75 it was 0.2 µg/mL (≈ 0.293 µM); in the test on Staph. aureus 209-P, 25 µg/mL (≈ 36.6 µM); with Escher. coli NIHJ it was 0.2 µg/mL (≈ 0.293 µM).

For the compound `CC(=O)OCC1=C(C(=O)O)N2C(=O)[C@@H](NC(=O)[C@H](NC(=O)c3coc4c(OC(C)=O)c(OC(C)=O)ccc4c3=O)c3ccc(OCC(=O)O)cc3)[C@H]2SC1` [Example 17, 7β-[D-2-(4-Carboxymethoxyphenyl)-2-(7,8-diacetoxy-4-oxo-4H-1-benzopyran-3-carboxamido)acetamido]-3-acetoxymethyl-3-cephem-4-carboxylic acid], the MIC with Proteus morganii EP-14 is 12.5 µg/mL (≈ 16.3 µM); against Kleb. pneumoniae EK-6, ≤ 0.05 µg/mL; against Pseud. aeruginosa EP-01 it was 0.8 µg/mL (≈ 1.04 µM); in the test on Ser. marcescens ES-75 it was 1.56 µg/mL (≈ 2.03 µM); against Staph. aureus 209-P it was 50 µg/mL (≈ 65.1 µM); in the test with Escher. coli NIHJ, 0.8 µg/mL (≈ 1.04 µM).

On to `CC(=O)Oc1ccc2c(=O)c(C(=O)N[C@@H](C(=O)N[C@@H]3C(=O)N4C(C(=O)O)=C(CSc5nnnn5CC(=O)O)CS[C@H]34)c3ccc(OCC(=O)O)cc3)coc2c1OC(C)=O` [Example 16, 7β-[D-2-(4-carboxymethoxyphenyl)-2-(7,8-diacetoxy-4-oxo-4H-1-benzopyran-3-carboxamido)acetamido]-3-(1-carboxymethyl-5-tetrazolyl)thiomethyl-3-cephem-4-carboxylic acid], for which the MIC came out at 6.25 µg/mL (≈ 7.2 µM) in the test on Proteus morganii EP-14; 0.2 µg/mL (≈ 0.23 µM) against Kleb. pneumoniae EK-6; 0.8 µg/mL (≈ 0.922 µM) against Pseud. aeruginosa EP-01; 0.8 µg/mL (≈ 0.922 µM) against Ser. marcescens ES-75; 100 µg/mL (≈ 115 µM) against Staph. aureus 209-P; 0.8 µg/mL (≈ 0.922 µM) in the test on Escher. coli NIHJ.

Turning to `CCOC(=O)Oc1cc2oc(C)c(C(=O)N[C@@H](C(=O)N[C@@H]3C(=O)N4C(C(=O)O)=C(COC(C)=O)CS[C@H]34)c3ccc(OCC(=O)O)cc3)c(=O)c2cc1OC(=O)OCC` [Example 36], the MIC is 12.5 µg/mL (≈ 14.8 µM) with Proteus morganii EP-14; ≤ 0.05 µg/mL in the test with Kleb. pneumoniae EK-6; 0.1 µg/mL (≈ 0.119 µM) against Pseud. aeruginosa EP-01; 0.8 µg/mL (≈ 0.95 µM) with Ser. marcescens ES-75; 25 µg/mL (≈ 29.7 µM) in the test with Staph. aureus 209-P; 0.8 µg/mL (≈ 0.95 µM) with Escher. coli NIHJ.

Regarding `CN(C)CCn1nnnc1SCC1=C(C(=O)O)N2C(=O)[C@@H](NC(=O)[C@H](NC(=O)c3coc4cc(O)c(O)cc4c3=O)c3ccc(OCC(=O)O)cc3)[C@H]2SC1` [Example 14, Disodium 7β-[D-2-(4-carboxymethoxyphenyl)-2-(6,7-dihydroxy-4-oxo-4H-1-benzopyran-3-carboxamido)-acetamido]-3-[1-(2-N,N-dimethylaminoethyl)-5-tetrazolyl]-thiomethyl-3-cephem-4-carboxylate], the minimum inhibitory concentration (MIC) in the test on Proteus morganii EP-14 was 3.13 µg/mL; in the test with Kleb. pneumoniae EK-6 it was ≤ 0.05 µg/mL; against Pseud. aeruginosa EP-01 it was 0.1 µg/mL; in the test on Ser. marcescens ES-75 it was 0.2 µg/mL; with Staph. aureus 209-P, 25 µg/mL; against Escher. coli NIHJ, 0.4 µg/mL.

In the case of `Cn1nnnc1SCC1=C(C(=O)O)N2C(=O)[C@@H](NC(=O)[C@H](NC(=O)c3cc4ccc(O)c(O)c4oc3=O)c3ccc(OCC(=O)O)cc3)[C@H]2SC1` [Example 10, 7β-[D-2-(4-Carboxymethoxyphenyl)-2-(7,8-dihydroxyphenyl)-2-(7,8-dihydroxy-2-oxo-2H-1-benzopyran-3-carboxamido)acetamido]-3-(1-methyl-5-tetrazolyl)-thiomethyl-3-cephem-4-carboxylic acid], the minimal inhibitory concentration (MIC) against Proteus morganii EP-14 is 3.13 µg/mL (≈ 4.23 µM); against Kleb. pneumoniae EK-6, ≤ 0.05 µg/mL; in the test on Pseud. aeruginosa EP-01, ≤ 0.05 µg/mL; against Ser. marcescens ES-75, 0.1 µg/mL (≈ 0.135 µM); against Staph. aureus 209-P it was 12.5 µg/mL (≈ 16.9 µM); against Escher. coli NIHJ it was 0.4 µg/mL (≈ 0.541 µM).

Turning to `CC(=O)Oc1cc2oc(C)c(C(=O)N[C@@H](C(=O)N[C@@H]3C(=O)N4C(C(=O)O)=C(CSc5nnnn5CC(=O)O)CS[C@H]34)c3ccc(OCC(=O)O)cc3)c(=O)c2cc1OC(C)=O` [Example 22, 7β-[D-2-(4-Carboxymethoxyphenyl)-2-(6,7-diacetoxy-2-methyl-4-oxo-4H-1-benzopyran-3-carboxamido)-acetamido]-3-(1-carboxymethyl-5-tetrazolyl)thiomethyl-3-cephem-4-carboxylic acid], the MIC with Proteus morganii EP-14 was 3.13 µg/mL (≈ 3.55 µM); in the test with Kleb. pneumoniae EK-6, ≤ 0.05 µg/mL; in the test with Pseud. aeruginosa EP-01, 0.2 µg/mL (≈ 0.227 µM); in the test on Ser. marcescens ES-75, 0.1 µg/mL (≈ 0.113 µM); in the test on Staph. aureus 209-P it was 100 µg/mL (≈ 113 µM); against Escher. coli NIHJ, 0.2 µg/mL (≈ 0.227 µM).

As for `CC(=O)OCC1=C(C(=O)O)N2C(=O)[C@@H](NC(=O)[C@H](NC(=O)c3c(C)oc4cc(O)c(O)cc4c3=O)c3ccc(OCC(=O)O)cc3)[C@H]2SC1` [Example 29, Disodium 7β-[D-2-(4-carboxymethoxyphenyl)-2-(6,7-dihydroxy-2-methyl-4-oxo-4H-1-benzopyran-3-carboxamido)acetamido]-3-acetoxymethyl-3-cephem-4-carboxylate], the MIC was 12.5 µg/mL in the test on Proteus morganii EP-14; ≤ 0.05 µg/mL against Kleb. pneumoniae EK-6; 0.2 µg/mL against Pseud. aeruginosa EP-01; 0.4 µg/mL against Ser. marcescens ES-75; 50 µg/mL in the test on Staph. aureus 209-P; 0.4 µg/mL against Escher. coli NIHJ.

For the compound `Cc1nnc(SCC2=C(C(=O)O)N3C(=O)[C@@H](NC(=O)[C@H](NC(=O)c4coc5cc(O)c(O)cc5c4=O)c4ccc(OCC(=O)O)cc4)[C@H]3SC2)s1` [Example 6, Disodium 7β-[D-2-(4-carboxymethoxyphenyl)-2-(6,7-dihydroxy-4-oxo-4H-1-benzopyran-3-carboxamido)-acetamido]-3-[5-methyl-2-(1,3,4-thiadiazolyl)]-thiomethyl-3-cephem-4-carboxylate], the MIC against Proteus morganii EP-14 is 1.56 µg/mL; in the test on Kleb. pneumoniae EK-6 it was ≤ 0.05 µg/mL; against Pseud. aeruginosa EP-01 it was ≤ 0.05 µg/mL; in the test with Ser. marcescens ES-75 it was 0.2 µg/mL; in the test on Staph. aureus 209-P, 3.13 µg/mL; against Escher. coli NIHJ, 0.8 µg/mL.

For `Cn1nnnc1SCC1=C(C(=O)O)N2C(=O)[C@@H](NC(=O)[C@H](NC(=O)c3coc4c(O)c(O)ccc4c3=O)c3ccc(OCC(=O)O)cc3)[C@H]2SC1` [Example 9, 7β-[D-2-(4-Carboxymethoxyphenyl)-2-(7,8-dihydroxy-4-oxo-4H-1-benzopyran-3-carboxamido)acetamido]-3-(1-methyl-5-tetrazolyl)thiomethyl-3-cephem-4-carboxylic acid], the MIC against Proteus morganii EP-14 is 1.56 µg/mL (≈ 2.11 µM); against Kleb. pneumoniae EK-6, ≤ 0.05 µg/mL; against Pseud. aeruginosa EP-01 it was ≤ 0.05 µg/mL; with Ser. marcescens ES-75, 0.2 µg/mL (≈ 0.27 µM); against Staph. aureus 209-P, 25 µg/mL (≈ 33.8 µM); against Escher. coli NIHJ, 0.4 µg/mL (≈ 0.541 µM).

For the compound `CCn1cc(C(=O)N[C@@H](C(=O)N[C@@H]2C(=O)N3C(C(=O)O)=C(COC(C)=O)CS[C@H]23)c2ccc(OCC(=O)O)cc2)c(=O)c2cc(O)c(O)cc21` [Example 35, Disodium 7β-[D-2-(4-carboxymethoxyphenyl)-2-(6,7-dihydroxy-1-ethyl-1,4-dihydro-4-oxoquinoline-3-carboxamido)acetamido]-3-acetoxymethyl-3-cephem-4-carboxylate], the MIC is 12.5 µg/mL in the test with Proteus morganii EP-14; ≤ 0.05 µg/mL in the test with Kleb. pneumoniae EK-6; 0.2 µg/mL with Pseud. aeruginosa EP-01; 1.56 µg/mL in the test with Ser. marcescens ES-75; 50 µg/mL against Staph. aureus 209-P; 0.8 µg/mL against Escher. coli NIHJ.

For `CC(=O)Oc1cc2oc(C)c(C(=O)N[C@@H](C(=O)N[C@@H]3C(=O)N4C(C(=O)[O-])=C(C[n+]5ccc(C(N)=O)cc5)CS[C@H]34)c3ccc(OCC(=O)O)cc3)c(=O)c2cc1OC(C)=O` [Example 56, 7β-[D-2-(4-Carboxymethoxyphenyl)-2-(6,7-diacetoxy-2-methyl-4-oxo-4H-1-benzopyran-3-carboxamido)acetamido]-3-(4-carbamoylpyridinium)methyl-3-cephem-4-carboxylate], the MIC against Proteus morganii EP-14 was 6.25 µg/mL (≈ 7.41 µM); in the test on Kleb. pneumoniae EK-6, ≤ 0.05 µg/mL; in the test with Pseud. aeruginosa EP-01, 0.2 µg/mL (≈ 0.237 µM); in the test on Ser. marcescens ES-75 it was 0.8 µg/mL (≈ 0.948 µM); with Staph. aureus 209-P, 25 µg/mL (≈ 29.6 µM); with Escher. coli NIHJ, 0.8 µg/mL (≈ 0.948 µM).

For the origin of these results see patent US4546176A, “7-Carboxymethoxyphenylacetamido-3-cephem derivatives and antibacterial preparations containing the same” (Eisai Co., Ltd., priority 1982, dated 1985).
